Source: patent publication US8889378B2, “Cytochrome C synthesis inhibitors” (priority 2006, dated 2014)

Key:
[1] = test system: system I cytochrome c biogenesis; assay: Metalloprotoporphyrin IX addition, E. coli ΔccmΔhemA with pRGK333 (system I), pRGK332, pHPEX2 and 8 μM heme; assay type: cell-based; settings: for effect on the level of detectable heme on c4:6×His (holocytochrome c4): metalloporphyrin 8, 12.5 or 25 μM with 8 μM heme
Experimental: (§1) Overnight cultures of an E. coli Δccm strain (or E. coli ΔccmΔhemA) harboring either pRGK333 (system I) or pRGK348 (system II-chuA), pRGK332 (cytochrome c4:6×His), and pHPEX2 (Varnado and Goodwin, 2004) were diluted into fresh LB broth (containing the appropriate antibiotics and 8 μM hemin for the E. coli ΔccmΔhemA strain) and incubated with aeration at 37° C. until the OD600 was approximately 0.5. The mid-log phase cultures were divided into 5 mL aliquots to which IPTG (1 mM) and a metalloprotoporphyrin IX (Zn (II), Sn (IV), Co (III), or Mn (III); 0 μM to 25 μM) were added. Arabinose (0.2%) was added after one hour and incubation continued for an additional three hours. Cells were harvested and soluble protein was extracted using B-PER (Feissner et al., 2006). Cytochrome c4:6×His was purified from 300 μg of total protein and 20 μL was subjected to SDS-PAGE and transferred to nitrocellulose. Prior to heme stain and c4 immunoblot, the nitrocellulose blots were screened for fluorescence on an LAS-1000plus Luminescent Image Analyzer CCD camera system (Fujifilm; Tokyo, Japan).
(§2) Heme stains were performed as described (Feissner et al., 2003) using SuperSignal Femto chemiluminescent substrate (Pierce). Heme stain quantitation used LOLITA II (Low Light Test Array; raytestUSA; Wilmington, N.C.) for standardization of light intensity detection on an LAS1000plus Luminescent Image Analyzer CCD camera system. For Western blotting, extracts were first separated by 12% or 15% SDS-PAGE and electroblotted onto Hybond-C nitrocellulose membranes (Amersham). Protein A peroxidase (Sigma-Aldrich) was used as the secondary label. Detection used the SuperSignal West Femto ECL detection system (Pierce). Chemiluminescence from heme stains and Western blots were detected using an LAS-1000plus Luminescent Image Analyzer CCD camera system (Fujifilm). Protein concentrations were determined using the BCA assay (Pierce) using BSA as a standard. The reduced (10 mM sodium dithionite) and oxidized (10 mM ammonia persulphate) absorption spectra were obtained as previously described (Goldman et al., 1996) using Ni^2+ affinity-purified holocytochrome c4:His. Protein concentrations were determined with the BCA assay kit (Pierce) using BSA as a standard.
The chemical properties of iron may not be uniquely critical for its attachment to apocytochrome c during cytochromes c biogenesis. To test whether any of the cytochromes c biogenesis systems can incorporate other metal porphyrins, four metalloporphyrins were chosen to screen for incorporation into the into the CXXCH motif of a c-type cytochrome: ZnPPIX, SnPPIX, MnPPIX, and CoPPIX. These four metalloporphyrins were tested to determine whether heme can be replaced by other metalloporphyrins in the c-type cytochrome (c4:6×His) reporter. Cultures of E. coli ΔccmΔhemA containing pRGK333 (system I), pRGK332 (c4:6×His), and pHPEX2 were grown overnight in 300 μM ALA and subcultured into fresh LB medium containing 8 μM heme and grown to an OD600 of 0.5. IPTG and metalloporphyrin (8 μM, 12.5 μM, or 25 μM) were then added and growth continued for one hour. Arabinose was added to 0.2% to induce the synthesis of the c4:6×His and growth continued for three more hours before cells were harvested. […] As expected, heme was detected on c4:6×His when either 8 μM or 25 μM heme alone was added (FIG. 15 lanes 1 and 2, respectively).

[2] = test system: system II cytochrome c biogenesis (H. pylori CcsBA); assay: Metalloprotoporphyrin IX addition, E. coli Δccm with pRGK348 (system II-chuA) and pRGK332; assay type: cell-based; settings: for level of heme on c4:6×His: system II, up to 100 μM
Experimental: as §1, with “The mid-log phase cultures were divided into 5 mL aliquots to which IPTG (1 mM) and a metalloprotoporphyrin IX (Zn (II), Sn (IV), Co (III), or Mn (III); 0 μM to 25 μM) were added.” left out
as §2, with “Protein A peroxidase (Sigma-Aldrich) was used as the secondary label. Detection used the SuperSignal West Femto ECL detection system (Pierce).” left out, “The reduced (10 mM sodium dithionite) and oxidized (10 mM ammonia persulphate) absorption spectra were obtained as previously described (Goldman et al., 1996) using Ni^2+ affinity-purified holocytochrome c4:His.” left out
ZnPPIX (and SnPPIX), when present with 8 μM heme, may compete with heme for ChuA-dependent transport into the cell. […] When E. coli Δccm with pRGK333 (system I), pRGK332, and pHPEX2 were treated with ZnPPIX, a decrease in holocytochrome c4:6×His was detected as the concentration of ZnPPIX was increased (FIG. 16A left panel, lanes 1-5). […]

[3] = test system: system I cytochrome c biogenesis; assay: Metalloprotoporphyrin IX addition, E. coli Δccm with pRGK333 (system I), pRGK332 and pHPEX2; assay type: cell-based; settings: for level of heme on c4:6×His: system I, up to 100 μM
Experimental: as §1, with “The mid-log phase cultures were divided into 5 mL aliquots to which IPTG (1 mM) and a metalloprotoporphyrin IX (Zn (II), Sn (IV), Co (III), or Mn (III); 0 μM to 25 μM) were added.” left out
as §2
ZnPPIX (and SnPPIX), when present with 8 μM heme, may compete with heme for ChuA-dependent transport into the cell. Using an E. coli Δccm strain (RK103) that has endogenous heme production, it was tested whether ZnPPIX (and SnPPIX) caused a reduction in holocytochrome c4 levels detectable by heme stain. When E. coli Δccm with pRGK333 (system I), pRGK332, and pHPEX2 were treated with ZnPPIX, a decrease in holocytochrome c4:6×His was detected as the concentration of ZnPPIX was increased (FIG. 16A left panel, lanes 1-5).
The three other metal protoporphyrins, SnPPIX, MnPPIX, and CoPPIX, were also tested in the E. coli Δccm background with system I or II. […]

E. coli Δccm = assay: Growth of E. coli Δccm with pRGK333, pRGK332 and pHPEX2 in the presence of ZnPPIX; assay type: cell-based; settings: 12.5 μM or 25 μM; compared to the same strain without ZnPPIX
Experimental: FIG. 21. Growth of E. coli Dccm containing pRGK333, pRGK332, and HPEX2 in the presence of ZnPPIX. Overnight cultures of E. coli Dccm containing pRGK333 (system I), pRGK332 (cytochrome c4:6×His), and pHPEX2 were diluted into fresh LB broth containing the indicated ZnPPIX ([…]) concentrations for growth measurements.
To rule out that ZnPPIX is not affecting some basic cellular processes, growth studies were performed with E. coli Δccm harboring pRGK333 (system I), pRGK332 (c4:6×His), and pHPEX2.

[4] = test system: system II cytochrome c biogenesis (H. pylori CcsBA); assay: NMPP inhibition of holocytochrome c4:His synthesis, RK103 with pRGK334 (system II) and pRGK332; assay type: cell-based, E. coli; settings: all trials; heme stain
Experimental: (§3) Five milliliter cultures of E. coli Δccm harboring either the pRGK333 or pRGK334 plasmid and pRGK332, or pRGK345 and pRGK349, were inoculated with 300 μl of overnight culture grown for 3 h to mid-exponential phase (A600=0.6). At this point, IPTG and NMPP (Frontier Scientific) were added to each culture; IPTG was added (1 mM) to induce the synthesis of system I (pRGK333), system II (pRGK334), or ΔccmE (pRGK345) while NMPP (10 mM stock in 50% DMSO) was added to a final concentration of 0-100 μM. After addition of IPTG and NMPP, cultures were grown an additional hour before induction of cytochrome c4:His (and ccmE from pRGK349) with 0.2% arabinose. Cells were grown for an additional 3 h and then harvested by centrifugation. […]
(§4) Heme stains were performed as described (Feissner et al., 2003) using SuperSignal Femto chemiluminescent substrate (Pierce). Heme stain quantitation used LOLITA II (Low Light Test Array; raytestUSA; Wilmington, N.C.) for standardization of light intensity detection on an LAS1000plus Luminescent Image Analyzer CCD camera system. […] Chemiluminescence from heme stains and Western blots were detected using an LAS-1000plus Luminescent Image Analyzer CCD camera system (Fujifilm). Protein concentrations were determined using the BCA assay (Pierce) using BSA as a standard. […] Protein concentrations were determined with the BCA assay kit (Pierce) using BSA as a standard. […]

[5] = test system: system I cytochrome c biogenesis; assay: NMPP-ZnPPIX combined inhibition, E. coli Δccm with pRGK333 (system I), pRGK332 and pHPEX2; assay type: cell-based
Experimental: 100 mL cultures of E. coli Δccm containing pRGK333 (system I), pRGK332 (c4:6×His), and pHPEX2 (Varnado and Goodwin, 2004) were inoculated with 1% (v/v) from an overnight culture and grown with aeration at 37° C. to an OD600 of approximately 0.5. The mid-log phase cultures were divided into 5 mL aliquots to which IPTG (1 mM, to induce the synthesis of the system I proteins and the chuA gene) and NMPP (0 μM to 100 μM) were added. After one hour 0.2% arabinose was added (to induce the synthesis of the B. pertussis c4:6×His) and cultures were incubated an additional three hours. […]
as §4

[6] = test system: system I cytochrome c biogenesis with arabinose-inducible CcmE; assay: NMPP inhibition, RK103 with pRGK345 (system I, ccmE deletion) and pRGK349 (arabinose-inducible c4:His and CcmE); assay type: cell-based, E. coli; settings: 100 μM NMPP; compared with pRGK333 and constitutively produced CcmE
Experimental: as §3, §4

Compound: C=Cc1c(C)c2cc3[nH]c(cc4nc(cc5nc(cc1[nH]2)C(C)=C5CCC(=O)[O-])C(CCC(=O)[O-])=C4C)c(C)c3C=C.[Co+2] [CoPPIX, cobalt (III) protoporphyrin IX]
- effect on the level of detectable heme on c4:6×His (holocytochrome c4) [1]: neither CoPPIX nor MnPPIX had any affect
- level of heme on c4:6×His [2]: no decrease
- level of heme on c4:6×His [3]: no decrease

Compound: C=CC1=C(C)c2cc3[n-]c(cc4[n-]c(cc5nc(cc1n2)C(C)=C5C=C)c(C)c4CCC(=O)[O-])c(CCC(=O)[O-])c3C.[H+].[H+].[Mn+2] [MnPPIX, manganese (III) protoporphyrin IX]
- effect on the level of detectable heme on c4:6×His (holocytochrome c4) [1]: neither CoPPIX nor MnPPIX had any affect
- level of heme on c4:6×His [2]: no decrease
- level of heme on c4:6×His [3]: no decrease

Compound: C=Cc1c2[n-]c(c1C)/C=c1\[n-]/c(c(C)c1C=C)=C\c1[n-]c(c(CCC(=O)O)c1C)C=c1[n-]/c(c(C)c1CCC(=O)O)=C\2.[Sn+4] [SnPPIX, tin (IV) protoporphyrin IX]
- effect on the level of detectable heme on c4:6×His (holocytochrome c4) [1]: reduced the level of detectable heme
- IC50 ([2]; holocytochrome c4:6×His, heme stain, read-out: concentration required for 50% inhibition of system II): ~18 µM
- IC50 ([3]; holocytochrome c4:6×His, heme stain, read-out: concentration required for 50% inhibition of system I): ~65 µM

Compound: C=CC1=C(C)c2cc3[n-]c(cc4[n-]c(cc5nc(cc1n2)C(C)=C5C=C)c(C)c4CCC(=O)O)c(CCC(=O)O)c3C.[Zn+2] [ZnPPIX, zinc (II) protoporphyrin IX]
- level of heme on c4:6×His ([1]; 25 μM ZnPPIX with 8 μM heme, heme stain): nearly undetectable
- effect on the level of detectable heme on c4:6×His (holocytochrome c4) [1]: decreasing amounts of holocytochrome c4
- rate or yield of growth (E. coli Δccm): no decrease in the rate or yield of growth
- holocytochrome c4:6×His produced, % of wild type levels ([3]; 8 μM ZnPPIX): approximately 20%

Compound: N-methylprotoporphyrin [NMPP]
- NMPP concentration at which holocytochrome c4:His production was completely abolished [4]: less than 20 μM
- holocytochrome c4:6×His levels ([5]; 60 μM NMPP alone): approximately 54%
- holocytochrome c4:6×His levels ([5]; 100 μM NMPP alone): approximately 30%
- amount of holocytochrome c4:His [6]: dramatic reduction
